Laboratory results as given in publication PMC5362750, “Discovery of Potent, Selective, and Orally Bioavailable Small-Molecule Modulators of the Mediator Complex-Associated Kinases CDK8 and CDK19” (Journal of Medicinal Chemistry, 2016).

What was measured:
[1] = target: T1, BRK (Homo sapiens, UniProt Q13882); assay: Kinase panel (Millipore); assay type: biochemical; conditions: 1 µM, ATP at Km
T1 construct: purchased Millipore (KinaseProfiler) kinase panel

[2] = target: T2, ITK (Homo sapiens, UniProt Q08881); assay: Kinase panel (Millipore); assay type: biochemical; conditions: 1 µM, ATP at Km
T2 construct: purchased Millipore (KinaseProfiler) kinase panel

[3] = target: CKIT(V560G) (Homo sapiens, UniProt P10721, V560G); conditions: 1 µM, ATP at Km
[4] = tested on: MT3 (ML2); conditions: 10 µM, agonist radioligand
[5] = target: T3, TAO1 (Homo sapiens, UniProt Q7L7X3); assay: Kinase panel (Millipore); assay type: biochemical; conditions: 1 µM, ATP at Km
T3 construct: purchased Millipore (KinaseProfiler) kinase panel

[6] = target: PKCALPHA (Homo sapiens, UniProt P17252); assay: Kinase panel (Millipore); assay type: biochemical; conditions: 1 µM, ATP at Km
[7] = target: FGFR2 (Homo sapiens, UniProt P21802); assay: Kinase panel (Millipore); assay type: biochemical; conditions: 1 µM, ATP at Km
[8] = target: T4, H4 (h) (Homo sapiens, UniProt Q9H3N8); assay: CEREP binding assay; conditions: agonist radioligand, read-out: % Inhibition of Control Specific Binding
T4 construct: purchased Millipore (KinaseProfiler) kinase panel

[9] = target: T5, PKCEPSILON (Homo sapiens, UniProt Q02156); assay: Kinase panel (Millipore); assay type: biochemical; conditions: 1 µM, ATP at Km
T5 construct: purchased Millipore (KinaseProfiler) kinase panel

[10] = target: T6, BMX (Homo sapiens, UniProt P51813); assay: Kinase panel (Millipore); assay type: biochemical; conditions: 1 µM, ATP at Km
T6 construct: purchased Millipore (KinaseProfiler) kinase panel

[11] = target: T7, SIK (Homo sapiens, UniProt P57059); assay: Kinase panel (Millipore); assay type: biochemical; conditions: 1 µM, ATP at Km
T7 construct: purchased Millipore (KinaseProfiler) kinase panel

[12] = target: T8, choline transporter (CHT1) (h) (Homo sapiens, UniProt Q9GZV3); assay: CEREP binding assay; conditions: antagonist radioligand, read-out: % Inhibition of Control Specific Binding
T8 construct: CEREP

[13] = target: ROCK-II (Homo sapiens, UniProt O75116); assay: Kinase panel (Millipore); assay type: biochemical; conditions: 1 µM, ATP at Km
Chain of ROCK-II (O75116 whole entry): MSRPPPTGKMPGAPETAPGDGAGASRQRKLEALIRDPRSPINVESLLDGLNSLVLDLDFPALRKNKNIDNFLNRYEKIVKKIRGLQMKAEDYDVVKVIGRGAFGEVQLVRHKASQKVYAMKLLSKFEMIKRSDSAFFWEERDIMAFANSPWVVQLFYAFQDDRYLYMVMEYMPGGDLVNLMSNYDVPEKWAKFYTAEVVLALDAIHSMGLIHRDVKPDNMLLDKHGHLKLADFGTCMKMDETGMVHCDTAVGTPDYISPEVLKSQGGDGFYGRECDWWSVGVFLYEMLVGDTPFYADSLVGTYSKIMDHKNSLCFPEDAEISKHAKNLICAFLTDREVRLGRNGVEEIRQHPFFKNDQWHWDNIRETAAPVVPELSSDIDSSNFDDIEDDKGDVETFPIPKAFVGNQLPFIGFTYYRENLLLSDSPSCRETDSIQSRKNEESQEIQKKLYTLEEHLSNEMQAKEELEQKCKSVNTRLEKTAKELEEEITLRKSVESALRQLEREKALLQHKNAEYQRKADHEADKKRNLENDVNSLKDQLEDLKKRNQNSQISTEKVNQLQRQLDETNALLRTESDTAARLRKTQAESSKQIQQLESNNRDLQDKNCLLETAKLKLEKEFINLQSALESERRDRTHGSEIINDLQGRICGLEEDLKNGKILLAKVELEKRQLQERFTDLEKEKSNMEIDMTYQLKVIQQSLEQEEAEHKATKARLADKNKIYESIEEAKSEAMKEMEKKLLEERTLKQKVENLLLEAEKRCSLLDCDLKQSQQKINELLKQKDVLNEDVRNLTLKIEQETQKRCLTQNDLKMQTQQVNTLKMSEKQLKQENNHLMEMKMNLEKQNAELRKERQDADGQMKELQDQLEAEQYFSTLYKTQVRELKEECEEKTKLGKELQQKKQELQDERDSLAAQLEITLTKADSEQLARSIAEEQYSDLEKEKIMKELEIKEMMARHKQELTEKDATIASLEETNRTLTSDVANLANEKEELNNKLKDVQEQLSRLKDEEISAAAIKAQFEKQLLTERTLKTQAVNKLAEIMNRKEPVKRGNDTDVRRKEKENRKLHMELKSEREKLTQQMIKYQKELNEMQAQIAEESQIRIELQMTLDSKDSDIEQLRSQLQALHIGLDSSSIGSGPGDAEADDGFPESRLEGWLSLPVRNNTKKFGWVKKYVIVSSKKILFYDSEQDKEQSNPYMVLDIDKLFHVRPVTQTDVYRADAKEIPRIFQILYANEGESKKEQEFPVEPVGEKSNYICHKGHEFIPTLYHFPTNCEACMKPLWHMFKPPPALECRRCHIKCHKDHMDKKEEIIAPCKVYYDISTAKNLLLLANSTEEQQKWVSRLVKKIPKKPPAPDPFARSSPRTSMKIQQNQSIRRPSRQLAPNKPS

[14] = target: T9, NEK3 (Homo sapiens, UniProt P51956); assay: Kinase panel (Millipore); assay type: biochemical; conditions: 1 µM, ATP at Km
T9 construct: purchased Millipore (KinaseProfiler) kinase panel

[15] = target: ASK1 (Homo sapiens, UniProt Q99683); assay: Kinase panel (Millipore); assay type: biochemical; conditions: 1 µM, ATP at Km
Chain of ASK1 (Q99683 whole entry): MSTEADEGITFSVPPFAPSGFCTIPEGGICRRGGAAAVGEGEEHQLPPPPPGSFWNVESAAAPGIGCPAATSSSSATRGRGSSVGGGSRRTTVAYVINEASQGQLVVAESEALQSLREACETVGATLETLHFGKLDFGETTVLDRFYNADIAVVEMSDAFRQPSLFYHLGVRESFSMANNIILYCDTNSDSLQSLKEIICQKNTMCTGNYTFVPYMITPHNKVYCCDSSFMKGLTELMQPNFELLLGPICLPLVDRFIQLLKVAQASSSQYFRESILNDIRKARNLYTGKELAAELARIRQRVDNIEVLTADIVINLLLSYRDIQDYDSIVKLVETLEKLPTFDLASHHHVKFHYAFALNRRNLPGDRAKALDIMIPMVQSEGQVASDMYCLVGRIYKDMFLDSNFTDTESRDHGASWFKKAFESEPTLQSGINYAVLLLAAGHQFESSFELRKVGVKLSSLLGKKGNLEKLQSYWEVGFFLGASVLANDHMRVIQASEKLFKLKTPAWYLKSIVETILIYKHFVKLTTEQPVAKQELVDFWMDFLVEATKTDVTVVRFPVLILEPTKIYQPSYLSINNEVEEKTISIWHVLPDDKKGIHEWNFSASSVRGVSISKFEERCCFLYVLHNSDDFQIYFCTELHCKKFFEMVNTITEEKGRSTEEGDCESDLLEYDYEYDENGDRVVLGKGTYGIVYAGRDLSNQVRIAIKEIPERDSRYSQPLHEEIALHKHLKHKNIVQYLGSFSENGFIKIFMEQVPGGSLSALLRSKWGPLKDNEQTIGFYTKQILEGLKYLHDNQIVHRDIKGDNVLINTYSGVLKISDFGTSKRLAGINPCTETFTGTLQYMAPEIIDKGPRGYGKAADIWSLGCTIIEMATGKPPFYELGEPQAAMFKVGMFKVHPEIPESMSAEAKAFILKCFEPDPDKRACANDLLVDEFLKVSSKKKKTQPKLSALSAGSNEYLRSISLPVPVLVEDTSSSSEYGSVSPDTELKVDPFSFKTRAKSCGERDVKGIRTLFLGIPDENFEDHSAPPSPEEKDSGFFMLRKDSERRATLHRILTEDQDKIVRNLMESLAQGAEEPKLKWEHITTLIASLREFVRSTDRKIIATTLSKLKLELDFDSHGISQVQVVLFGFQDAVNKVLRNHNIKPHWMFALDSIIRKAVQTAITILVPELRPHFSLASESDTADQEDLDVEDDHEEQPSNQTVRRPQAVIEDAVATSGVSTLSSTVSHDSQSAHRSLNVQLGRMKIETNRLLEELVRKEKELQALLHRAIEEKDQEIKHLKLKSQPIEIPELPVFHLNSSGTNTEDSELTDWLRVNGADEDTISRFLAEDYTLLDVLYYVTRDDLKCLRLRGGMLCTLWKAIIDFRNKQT

[16] = target: DDR2 (Homo sapiens, UniProt Q16832); assay: Kinase panel (Millipore); assay type: biochemical; conditions: 1 µM, ATP at Km
[17] = target: cMET (Y1248C) (Homo sapiens, UniProt P08581, Y1230C); conditions: 1 µM, ATP at Km
[18] = tested on: glycine (strychnine-insensitive); conditions: 10 µM, antagonist radioligand
[19] = target: T10, JAK2 (Homo sapiens, UniProt O60674); assay: Kinase panel (Millipore); assay type: biochemical; conditions: 1 µM, ATP at Km
T10 construct: purchased Millipore (KinaseProfiler) kinase panel

[20] = target: PKBBETA (Homo sapiens, UniProt P31751); assay: Kinase panel (Millipore); assay type: biochemical; conditions: 1 µM, ATP at Km
[21] = target: T11, ALK4 (Homo sapiens, UniProt P36896); assay: Kinase panel (Millipore); assay type: biochemical; conditions: 1 µM, ATP at Km
T11 construct: purchased Millipore (KinaseProfiler) kinase panel

[22] = target: CHK1 (Homo sapiens, UniProt O14757); assay: Kinase panel (Millipore); assay type: biochemical; conditions: 1 µM, ATP at Km
[23] = target: T12, MC1 (Mus musculus, UniProt Q01727); assay: CEREP binding assay; conditions: agonist radioligand, read-out: % Inhibition of Control Specific Binding
T12 construct: purchased Millipore (KinaseProfiler) kinase panel

[24] = target: T13, TAO2 (Homo sapiens, UniProt Q9UL54); assay: Kinase panel (Millipore); assay type: biochemical; conditions: 1 µM, ATP at Km
T13 construct: purchased Millipore (KinaseProfiler) kinase panel
T13 sequence (Q9UL54 whole entry): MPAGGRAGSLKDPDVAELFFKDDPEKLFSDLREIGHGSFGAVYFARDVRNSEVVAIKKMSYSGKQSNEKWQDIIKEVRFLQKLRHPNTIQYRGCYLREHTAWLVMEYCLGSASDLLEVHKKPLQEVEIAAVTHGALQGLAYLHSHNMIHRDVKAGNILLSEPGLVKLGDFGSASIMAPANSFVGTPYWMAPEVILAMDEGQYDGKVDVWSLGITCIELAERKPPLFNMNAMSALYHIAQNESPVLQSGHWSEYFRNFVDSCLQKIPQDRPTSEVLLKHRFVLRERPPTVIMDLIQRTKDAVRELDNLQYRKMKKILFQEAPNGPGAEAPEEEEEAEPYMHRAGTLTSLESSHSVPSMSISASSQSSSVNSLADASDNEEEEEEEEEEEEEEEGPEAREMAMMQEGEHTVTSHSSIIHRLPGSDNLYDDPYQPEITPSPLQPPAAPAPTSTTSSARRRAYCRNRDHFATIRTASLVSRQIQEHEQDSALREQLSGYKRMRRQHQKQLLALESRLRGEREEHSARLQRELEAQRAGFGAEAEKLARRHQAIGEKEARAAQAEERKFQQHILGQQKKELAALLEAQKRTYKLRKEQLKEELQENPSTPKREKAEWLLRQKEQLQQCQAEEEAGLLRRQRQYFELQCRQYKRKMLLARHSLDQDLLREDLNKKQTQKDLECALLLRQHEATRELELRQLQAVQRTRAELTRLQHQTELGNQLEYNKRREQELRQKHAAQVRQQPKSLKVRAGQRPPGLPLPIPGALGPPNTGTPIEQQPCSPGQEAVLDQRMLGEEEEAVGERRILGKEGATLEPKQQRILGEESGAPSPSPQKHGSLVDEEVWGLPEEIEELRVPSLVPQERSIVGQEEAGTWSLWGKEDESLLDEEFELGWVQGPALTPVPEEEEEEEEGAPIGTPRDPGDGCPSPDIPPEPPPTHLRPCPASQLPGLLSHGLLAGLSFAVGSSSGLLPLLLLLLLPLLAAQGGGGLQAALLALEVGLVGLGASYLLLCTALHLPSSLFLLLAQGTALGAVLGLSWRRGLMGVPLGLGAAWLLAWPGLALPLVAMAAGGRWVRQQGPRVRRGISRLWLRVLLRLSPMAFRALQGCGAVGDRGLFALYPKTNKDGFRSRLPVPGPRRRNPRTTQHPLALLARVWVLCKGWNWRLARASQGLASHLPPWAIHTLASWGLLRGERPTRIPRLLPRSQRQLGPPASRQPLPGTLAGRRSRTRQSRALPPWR

[25] = target: T14, Ca2+ channel (N) (Rattus norvegicus, UniProt Q02294); assay: CEREP binding assay; conditions: antagonist radioligand, read-out: % Inhibition of Control Specific Binding
T14 construct: CEREP

[26] = target: T15, CysLT1 (LTD4) (h) (Homo sapiens, UniProt Q9Y271); assay: CEREP binding assay; conditions: agonist radioligand, read-out: % Inhibition of Control Specific Binding
T15 construct: purchased Millipore (KinaseProfiler) kinase panel

[27] = target: GSK3BETA (Homo sapiens, UniProt P49841); assay: Kinase panel (Millipore); assay type: biochemical; conditions: 1 µM, ATP at Km
[28] = target: CDK2/CYCLINE (Homo sapiens, UniProt P24941); conditions: 1 µM, ATP at Km
[29] = target: T16, TAO3 (Homo sapiens, UniProt Q9H2K8); assay: Kinase panel (Millipore); assay type: biochemical; conditions: 1 µM, ATP at Km
T16 construct: purchased Millipore (KinaseProfiler) kinase panel

[30] = target: PHKGAMMA2 (Homo sapiens, UniProt P15735); assay: Kinase panel (Millipore); assay type: biochemical; conditions: 1 µM, ATP at Km
[31] = target: T17, PRAK (Homo sapiens, UniProt Q8IW41); assay: Kinase panel (Millipore); assay type: biochemical; conditions: 1 µM, ATP at Km
T17 construct: purchased Millipore (KinaseProfiler) kinase panel

[32] = target: cMET (Y1248D) (Homo sapiens, UniProt P08581, Y1230D); conditions: 1 µM, ATP at Km
[33] = tested on: NMDA; conditions: 10 µM, antagonist radioligand
[34] = target: IRAK1 (Homo sapiens, UniProt P51617); assay: Kinase panel (Millipore); assay type: biochemical; conditions: 1 µM, ATP at Km
[35] = target: PI3 KINASE (H1047R/P85A) (Homo sapiens, UniProt P42336, H1047R); conditions: 1 µM, ATP at Km
[36] = target: CHK2(I157T) (Homo sapiens, UniProt O96017, I157T); conditions: 1 µM, ATP at Km
[37] = target: FGR (Homo sapiens, UniProt P09769); assay: Kinase panel (Millipore); assay type: biochemical; conditions: 1 µM, ATP at Km
[38] = target: T18, MAO-A (Rattus norvegicus, UniProt P21396); assay: CEREP binding assay; conditions: antagonist radioligand, read-out: % Inhibition of Control Specific Binding
T18 construct: purchased Millipore (KinaseProfiler) kinase panel

[39] = target: T19, MUSK (Homo sapiens, UniProt O15146); assay: Kinase panel (Millipore); assay type: biochemical; conditions: 1 µM, ATP at Km
T19 construct: purchased Millipore (KinaseProfiler) kinase panel

[40] = target: T20, CHK2 (Homo sapiens, UniProt O96017); assay: Kinase panel (Millipore); assay type: biochemical; conditions: 1 µM, ATP at Km
T20 construct: purchased Millipore (KinaseProfiler) kinase panel

[41] = target: cMET (D1246N) (Homo sapiens, UniProt P08581, D1228N); conditions: 1 µM, ATP at Km
[42] = tested on: TR (TH); conditions: 10 µM, agonist radioligand
[43] = target: T21, SGK2 (Homo sapiens, UniProt Q9HBY8); assay: Kinase panel (Millipore); assay type: biochemical; conditions: 1 µM, ATP at Km
T21 construct: purchased Millipore (KinaseProfiler) kinase panel
T21 sequence (Q9HBY8 whole entry): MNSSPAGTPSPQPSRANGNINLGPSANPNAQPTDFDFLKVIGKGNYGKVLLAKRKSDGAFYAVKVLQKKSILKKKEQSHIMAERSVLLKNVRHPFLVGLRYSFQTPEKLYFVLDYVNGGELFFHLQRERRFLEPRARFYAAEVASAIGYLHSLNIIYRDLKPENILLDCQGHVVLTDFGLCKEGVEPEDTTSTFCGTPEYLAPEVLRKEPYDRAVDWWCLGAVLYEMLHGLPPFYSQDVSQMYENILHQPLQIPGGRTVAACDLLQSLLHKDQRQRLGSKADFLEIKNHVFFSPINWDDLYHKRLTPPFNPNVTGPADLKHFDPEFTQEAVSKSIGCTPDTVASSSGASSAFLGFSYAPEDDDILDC

T1 sequence (Q13882 whole entry): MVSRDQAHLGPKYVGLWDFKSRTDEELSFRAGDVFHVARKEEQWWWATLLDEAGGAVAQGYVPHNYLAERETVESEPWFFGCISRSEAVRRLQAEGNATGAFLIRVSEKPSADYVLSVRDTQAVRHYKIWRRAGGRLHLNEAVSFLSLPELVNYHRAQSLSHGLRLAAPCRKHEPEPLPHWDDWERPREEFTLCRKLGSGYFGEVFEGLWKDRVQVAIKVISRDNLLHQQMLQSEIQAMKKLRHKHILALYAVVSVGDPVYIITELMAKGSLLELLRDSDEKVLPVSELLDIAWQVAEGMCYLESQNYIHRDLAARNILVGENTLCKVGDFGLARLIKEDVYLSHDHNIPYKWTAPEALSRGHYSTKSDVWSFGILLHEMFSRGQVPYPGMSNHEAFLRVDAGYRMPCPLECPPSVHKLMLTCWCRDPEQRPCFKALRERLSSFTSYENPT

## Cn1ncc2cc(-c3cnc(N)c(Cl)c3N3CCC4(CCNC4=O)CC3)ccc21 [Compound 109, 8-(2-Amino-3-chloro-5-(1-methyl-1H-indazol-5-yl)pyridin-4-yl)-2,8-diazaspiro[4.5]decan-1-one]
[1]
  % effect: 13%
[2]
  % effect: -9%
[3]
  % effect: -5%
[4]
  % Inhibition of Control Specific Binding: 71%
[5]
  % effect: 6%
[6]
  % effect: 5%
[7]
  % effect: 4%
[8]
  inhibition at 10 µM: 0%
[9]
  % effect: -21%
[10]
  % effect: -6%
[11]
  % effect: -1%
[12]
  inhibition at 10 µM: 4%
[13]
  % effect: -10%
[14]
  % effect: -11%
[15]
  % effect: 17%
[16]
  % effect: 19%
[17]
  % effect: -3%
[18]
  % Inhibition of Control Specific Binding: -3%
[19]
  % effect: -20%
[20]
  % effect: -21%
[21]
  % effect: 2%
[22]
  % effect: -8%
[23]
  inhibition at 10 µM: -8%
[24]
  % effect: 2%
[25]
  inhibition at 10 µM: -12%
[26]
  inhibition at 10 µM: 12%
[27]
  % effect: -11%
[28]
  % effect: 3%
[29]
  % effect: -11%
[30]
  % effect: 11%
[31]
  % effect: 13%
[32]
  % effect: -1%
[33]
  % Inhibition of Control Specific Binding: 0%
[34]
  % effect: 15%
[35]
  % effect: 7%
[36]
  % effect: -5%
[37]
  % effect: -2%
[38]
  inhibition at 10 µM: 8%
[39]
  % effect: 3%
[40]
  % effect: -2%
[41]
  % effect: -2%
[42]
  % Inhibition of Control Specific Binding: -13%
[43]
  % effect: -3%
